Series [1] is described as follows: Peptide stability assay with pepsin (RP-HPLC). Format: in vitro ADME. To be noted: isolated enzyme pepsin, pepsin 50:1 (w/v) in 0.2 M HCl, 37 °C, peptide 0.1 M [sic], RP-HPLC peak area as % of initial, read-out: structural integrity retained (percentage of peptide remaining) after incubation with pepsin. As for the experimental part: Stability studies were conducted using purified cocotide tC1 (0.1 M) and S-alkylated tC1 (iodoacetamido) under specific buffer conditions. Pepsin stability was assessed by incubating the samples in a mixture of pepsin at a ratio of 50:1 (w/v) in 0.2 M HCl at 37 °C. For trypsin stability, the samples were treated with trypsin in 0.1 M ammonium bicarbonate buffer (pH 8) at 37 °C. Analysis of stability assays involved collecting samples at various time points, which were then analyzed by reversed-phase high-performance liquid chromatography (RP-HPLC) using a linear gradient of mobile phase A (0.05% trifluoroacetic acid in water) and mobile phase B (0.05% trifluoroacetic acid in acetonitrile) on an Aeris Peptide XB-C18 column (Phenomenex). The stability results were expressed as a percentage of the initial concentration and determined by the peak area of the HPLC profile.
7 Proteolytic stability assays of cocotide tC1. Cocotide tC1 was incubated with either pepsin or trypsin at 37 °C for up to 6 h. S-alkylated tC1 was used as the control. At different time points, samples of cocotide tC1 and the control were quantified using reversed-phase high pressure liquid chromatography (RP-HPLC). The relative peak areas of the RP-HPLC profiles were used to quantify the percentage of peptides remaining after incubation with pepsin or trypsin.

Series [2] is described as follows: Ferric Reducing Antioxidant Power (FRAP) assay. As to the method: OxiSelect Ferric Reducing Antioxidant Power (FRAP) Assay Kit (Cell Biolabs, USA) was used to measure the antioxidant potential of cocotide tC1. The assay was performed according to the manufacturer’s instructions .
Series [3] can be described thus: Post-translational modification analysis of methionine oxidation (tims-TOF MS/MS). To be noted: native peptide, during extraction and purification. The series is classed as physicochemical. As for the experimental part:
The primary sequences of cocotides from Theobroma cacao aqueous extracts were determined by LC-MS/MS sequencing as described previously. The C18-SPE fractionated Theobroma cacao aqueous extracts were redissolved in 20 mM DTT at 37 °C for 1 h followed by S-alkylation with 200 mM iodoacetamide at 37 °C for 1 h. The mixture was desalted with a C18 Zip-tip and subjected to analysis on a trapped ion mobility spectrometer-time-of-flight tandem mass spectrometer (tims-TOF MS/MS). Data analysis was performed using PEAKS Studio (version 11, Bioinformatics Solutions, Waterloo, ON, Canada) with a precursor ion tolerance of 10 ppm and a fragment ion tolerance of 0.05 Da. Carbamidomethylation at Cys was set as a fixed modification. Deamidation of […], oxidation of Met, and acetylation at Lys and N-term were set as variable modification. Peptide sequencing was performed using PEAKS DB protein identification, which integrates database search of an in-house ginsentide-like peptide library derived from Theobroma cacao transcriptome with de novo sequencing.

Series [4] concerns HaCaT cells. As to the kind of experiment: Tandem-mass-tag (TMT) quantitative proteomic profiling. Format: cell-based, human. To be noted: serum starved overnight, 10 μM tC1 for 24 h, versus untreated. As for the experimental part: Tandem-mass tag quantitative proteomic profiling was performed according to the manufacturer’s instructions . Briefly, HaCaT cells treated with or without cocotide tC1 were harvested and lysed by sonication for 3 min at 25% amplitude with a 2-s-on, 3-s-off pulse time in 8 M urea and 10 mM ammonium bicarbonate supplemented with a protease inhibitor. After centrifugation, quantification of the total proteins was performed by the BCA method. A total of 100 μg of protein from each condition was subjected to in-solution digestion before labeling the resultant peptides using the TMT-10plex Isobaric Label Reagent Set (Thermo Scientific, Rockford, IL, USA) according to the manufacturer’s protocol. […] Eluate was collected in 1 min fractions and strategically pooled via concatenation based on absorbance measurements at a wavelength of 280 nm. […]
The fractionated peptides were separated and analyzed using a Dionex Ultimate 3000 RSLCnano system coupled to a Q Exactive instrument (Thermo Fisher Scientific, MA, USA). […] Peptides were then analyzed on a Q Exactive apparatus with an EASY nanospray source (Thermo Fisher Scientific) at an electrospray potential of 1.8 kV. […] Raw data files were processed, searched, and TMT 10-plex was selected as the quantification method using Peaks Studio 11 with the UniProt human proteome (Proteome ID: UP000005640) as the reference proteome. […]

Where a SMILES comes first, the peptide text is derived from it. Bridges are numbered along the chain shown (N, C = ends). Where only a bound is given, the exact number is not on record here.

The text below walks through data of publication PMC12311725, “Identification of Ginsentide-like Peptides from Cacao Beans with Oxidative Stress Protection” (ACS Omega, 2025).

Usually amount remaining stands for the share of the starting amount still present when the sample was taken.

As for `CC[C@H](C)[C@@H]1NC(=O)CNC(=O)[C@H](CCSC)NC(=O)[C@@H]2CCCN2C(=O)[C@H](Cc2ccc(O)cc2)NC(=O)[C@H](CC(C)C)NC(=O)[C@@H]2CSSC[C@@H]3NC(=O)[C@H](Cc4ccccc4)NC(=O)CNC(=O)CNC(=O)[C@H](C)NC(=O)[C@H](CO)NC(=O)[C@H](CC(C)C)NC(=O)[C@@H](N)CSSC[C@@H]4NC(=O)[C@H](CSSC[C@H](NC1=O)C(=O)N[C@@H](Cc1ccc(O)cc1)C(=O)NCC(=O)N[C@@H](CO)C(=O)NCC(=O)N[C@H](C(=O)O)CSSC[C@H](NC(=O)[C@H](CC(N)=O)NC(=O)CNC4=O)C(=O)NCC(=O)N2)NC(=O)[C@H](CC(=O)O)NC(=O)[C@H](CCSC)NC(=O)[C@@H]1CCCN1C(=O)[C@H](CC(N)=O)NC(=O)[C@H](Cc1ccccc1)NC(=O)[C@H](CCSC)NC3=O` [cocotide tC1] (H-CLSAGGFCMFNPMDCCGNCGCLYPMGICYGSGC-OH; disulfide 1-16, 8-21, 15-28, 19-33; N-terminus and C-terminus assumed), in series [1], the fraction remaining at 6 h was above 80%. In addition, the “antioxidant power relative to ascorbic acid” value in series [2] (FRAP value of tC1 versus ascorbic acid (positive control)) was found to be 152 fold. In series [2] (OxiSelect FRAP Assay Kit), this molecule registered an FRAP value of 55.1 Fe^2+ μM/μM. Also, in series [3], the “Met19 and Met25 oxidized to Met(O)” value was below 5%; the “methionine at position 9 converted to Met(O)” value came to 27%. Also, in series [4], the “number of downregulated proteins (minimum 2-fold, significance value >15)” value is listed as 3 proteins and the “number of upregulated proteins (minimum 2-fold, significance value >15)” value is on record as 19 proteins.
